Results taken from US20100113460A1, “Organic Compounds” (Givaudan SA, priority 2007, published 2010).

biological target: T1, CYP2A6 (Homo sapiens, UniProt P11509); test: CYP2A6 inhibition, coumarin to Umbelliferone fluorescence assay in microsomes; type: biochemical; conditions: substrate coumarin 0.003 mM, 60 min at 37° C.; read-out: CYP2A6 inhibitor activity IC50
T1 construct: purchased BD Biosciences Gentest, USA
T1 sequence (P11509 1-494): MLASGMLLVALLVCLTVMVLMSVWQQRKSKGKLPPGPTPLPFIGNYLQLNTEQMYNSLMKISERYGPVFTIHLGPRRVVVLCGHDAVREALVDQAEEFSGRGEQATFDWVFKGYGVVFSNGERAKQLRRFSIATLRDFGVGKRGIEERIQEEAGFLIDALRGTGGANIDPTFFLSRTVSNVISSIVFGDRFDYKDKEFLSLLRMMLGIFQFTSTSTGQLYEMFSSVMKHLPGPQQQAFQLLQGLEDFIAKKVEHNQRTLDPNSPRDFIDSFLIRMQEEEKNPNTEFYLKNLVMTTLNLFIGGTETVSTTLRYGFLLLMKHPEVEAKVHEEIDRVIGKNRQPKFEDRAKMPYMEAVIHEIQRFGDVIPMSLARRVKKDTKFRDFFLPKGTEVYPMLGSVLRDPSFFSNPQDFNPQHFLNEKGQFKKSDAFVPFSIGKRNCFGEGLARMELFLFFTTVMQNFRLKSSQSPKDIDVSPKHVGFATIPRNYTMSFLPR
Description: Test compounds that inhibit the activity of CYP2A6 are identified by using the same principle as described in Example 28, first paragraph.
A test compound (details see list below) was incubated with CYP2A6 in the presence of a cytochrome P450 reductase. CYP2A6 and P450 reductase were employed in form of microsomes (BD Biosciences Gentest, USA). Microsomes were used which contained 2 pmoles CYP2A6 and an amount of NADPH-P450 reductase corresponding to cytochrome c reductase activity of 87 nmole/(min×mg protein). […] The concentration of the standard substrate coumarin was 0.003 mM.
The samples were analysed spectrofluorometrically according to the procedure described in Example 28.

| Structure (SMILES) | IC50 [µM] |
| --- | --- |
| CCCCCCC1=C(C)CCC1=O [Compound ID 3, 2-hexyl-3-methylcyclopent-2-enone] | 13 |
| CC/C=C\CC1=C(C)CCC1=O [Compound ID 10, (Z)-3-methyl-2-(pent-2-enyl)cyclopent-2-enone] | 54 |
| CCCCC1OC(=O)CC1C (stereo not drawn) [Compound ID 11, 4-methyl-5-butyldihydrofuran-2(3H)-one] | 56 |
| CCCCCn1ccnc1 [Compound ID 28, 1-pentyl-1H-imidazole] | 2 |
| CC/C=C\Cn1ccnc1 [Compound ID 54, (Z)-1-(pent-2-enyl)-1H-imidazole] | 7 |

biological target: T2, CYP2A13 (Homo sapiens, UniProt Q16696); test: CYP2A13 inhibition, coumarin to 7-hydroxy-coumarin (Umbelliferone) fluorescence assay in microsomes; conditions: not given
T2 sequence (Q16696 1-494): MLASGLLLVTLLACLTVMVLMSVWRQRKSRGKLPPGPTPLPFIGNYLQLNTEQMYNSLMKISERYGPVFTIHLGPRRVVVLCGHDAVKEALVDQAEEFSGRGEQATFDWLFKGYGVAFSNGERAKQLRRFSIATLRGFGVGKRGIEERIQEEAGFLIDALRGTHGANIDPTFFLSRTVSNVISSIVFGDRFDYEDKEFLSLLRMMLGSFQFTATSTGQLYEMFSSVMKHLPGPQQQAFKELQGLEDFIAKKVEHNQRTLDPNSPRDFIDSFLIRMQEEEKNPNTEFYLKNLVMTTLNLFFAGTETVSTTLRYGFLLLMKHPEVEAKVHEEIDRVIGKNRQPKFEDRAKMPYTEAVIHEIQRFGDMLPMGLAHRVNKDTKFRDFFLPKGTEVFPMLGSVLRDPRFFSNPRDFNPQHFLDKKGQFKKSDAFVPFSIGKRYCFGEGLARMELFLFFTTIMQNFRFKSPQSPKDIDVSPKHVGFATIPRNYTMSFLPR

| Structure (SMILES) | IC50 [µM] |
| --- | --- |
| c1nc2c(o1)CCCCCCCCC2 [Compound ID 14, 5,6,7,8,9,10,11,12-octahydro-4H-cycloundeca[d]oxazole] | 2 |
| CC/C=C\CC1CCCC(=O)O1 (stereo not drawn) [Compound ID 22, (Z)-6-(pent-2-enyl)tetrahydro-2H-pyran-2-one] | 3.3 |
| c1cnc2c(c1)CCCCCCCCCC2 [Compound ID 24, 5,6,7,8,9,10,11,12,13,14-decahydrocyclododeca[b]pyridine] | 3.5 |
| c1ncc2c(n1)CCCCCCCC2 [Compound ID 26, 5,6,7,8,9,10,11,12-octahydrocyclodeca[d]pyrimidine] | 3.7 |
| CCC1CCC2(CCC(=O)O2)CC1 (stereo not drawn) [Compound ID 29, 8-ethyl-1-oxaspiro[4.5]decan-2-one] | 4.3 |
| c1nc2c([nH]1)CCCCCCCCC2 [Compound ID 35, 1,4,5,6,7,8,9,10,11,12-decahydrocycloundeca[d]imidazole] | 5 |
| O=C1CCCCCCCCCCCN1 [Compound ID 36, azacyclotridecan-2-one] | 5.2 |
| c1cnc2c(n1)CCCCCCCCCC2 [Compound ID 42, 5,6,7,8,9,10,11,12,13,14-decahydrocyclododeca[b]pyrazine] | 6.1 |
| c1nnc2n1CCCCCCCCCCC2 [Compound ID 43, 6,7,8,9,10,11,12,13,14,15-decahydro-5H-[1,2,4]triazolo[4,3-a][1]azacyclotridecine] | 6.3 |
| O=C1CCC2CCCCC2O1 (stereo not drawn) [Compound ID 45, octahydrocoumarin] | 6.6 |
| CCCCCCC1CCC(=O)O1 (stereo not drawn) [Compound ID 47, 5-hexyldihydrofuran-2(3H)-one] | 7.2 |
| CCOC(=O)CCCn1ccnc1 [Compound ID 49, ethyl 4-(1H-imidazol-1-yl)butanoate] | 7.7 |
| c1cn2c(n1)CCCCCCCCCC2 [Compound ID 53, 5,6,7,8,9,10,11,12,13,14-decahydroimidazo[1,2-a][1]azacyclododecine] | 8.5 |
| CC/C=C\Cn1ccnc1 [Compound ID 54, (Z)-1-(pent-2-enyl)-1H-imidazole] | 9.4 |
| N#CCCCCn1ccnc1 [Compound ID 55, 5-(1H-imidazol-1-yl)pentanenitrile] | 9.5 |
| c1nc2c([nH]1)CCCCCCCCCC2 [Compound ID 59, 4,5,6,7,8,9,10,11,12,13-decahydro-1H-cyclododeca[d]imidazole] | 11.5 |
| c1nc2c(o1)CCCCCC2 [Compound ID 60, 4,5,6,7,8,9-hexahydrocycloocta[d]oxazole] | 11.4 |
| CC/C=C\CCOC(=O)C1CCCC1=O (stereo not drawn) [Compound ID 61] | 12.7 |
| c1cn2c(n1)CCCCCCCCCCC2 [Compound ID 64, 6,7,8,9,10,11,12,13,14,15-decahydro-5H-imidazo[1,2-a][1]azacyclotridecine] | 14.6 |
| O=C1CCCCCCCCCCN1 [Compound ID 65, azacyclododecan-2-one] | 15.6 |
| OCCCCn1ccnc1 [Compound ID 68, 4-(1H-imidazol-1-yl)butan-1-ol] | 16.1 |
| CC1CCC2(CCC(=O)O2)CC1 (stereo not drawn) [Compound ID 69, 8-methyl-1-oxaspiro[4.5]decan-2-one] | 17.6 |

Further lines, results first:

| IC50 [µM] | Structure (SMILES) |
| --- | --- |
| 12.5 | CCC=CCCC1(C)CCC(=O)O1 (mixture of isomers) [Compound ID 62, (E/Z)-5-(hex-3-enyl)-5-methyldihydrofuran-2(3H)-one] |
| 0.4 | CCCCCCC1=C(C)CCC1=O [Compound ID 3, 2-hexyl-3-methylcyclopent-2-enone] |
| 1.2 | CCCCCC1=C(C)CCC1=O [Compound ID 7, 2-pentyl-3-methylcyclopent-2-enone] |
| 1.4 | CCCCCC12CC1(C)CCC2=O (stereo not drawn) [Compound ID 8] |
| 1.6 | CC/C=C\CC1=C(C)CCC1=O [Compound ID 10, (Z)-3-methyl-2-(pent-2-enyl)cyclopent-2-enone] |
| 1.6 | CCCCC1OC(=O)CC1C (stereo not drawn) [Compound ID 11, 4-methyl-5-butyldihydrofuran-2(3H)-one] |
| 1.7 | CCCCCC1OC(=O)CC1C (stereo not drawn) [Compound ID 12, 4-methyl-5-pentyldihydrofuran-2(3H)-one] |
| 2.8 | CC/C=C\CC1C(=O)CCC1C (stereo not drawn) [Compound ID 17] |
| 2.8 | CCCCC/C=C/CC1CCCC1=O (stereo not drawn) [Compound ID 18, (E)-2-(oct-2-enyl)cyclopentanone] |
| 3 | CCCCCN1C(=O)CC[C@H]1C(=O)OCC [Compound ID 19] |
| 3.5 | CC/C=C\C[C@@H]1C(=O)CC[C@@H]1CC(=O)OC [Compound ID 25, (Z)-methyl 2-(3-oxo-2-(pent-2-enyl)cyclopentyl)acetate] |
| 4.2 | CCCCCCC1CCCC1=O (stereo not drawn) [Compound ID 27, 2-hexylcyclopentanone] |
| 4.2 | CCCCCn1ccnc1 [Compound ID 28, 1-pentyl-1H-imidazole] |
| 4.5 | CCCCCCC1=CCCC1=O [Compound ID 30, 2-hexylcyclopent-2-enone] |
| 4.6 | CCCCCCC1(C)CCC(=O)O1 (stereo not drawn) [Compound ID 31, 5-hexyl-5-methyldihydrofuran-2(3H)-one] |
| 4.8 | CCCCCC1C(=O)CCC1C (stereo not drawn) [Compound ID 32, 3-methyl-2-pentylcyclopentanone] |
| 5.2 | CCCCCC1C(=O)CCC1CC(=O)OC (stereo not drawn) [Compound ID 37, methyl 2-(3-oxo-2-pentylcyclopentyl)acetate] |
| 7.4 | CCCCCCN1C(=O)CCC1C (stereo not drawn) [Compound ID 48] |
| 7.8 | CCCCCC1C(=O)C(C)CC1C(=O)OC (stereo not drawn) [Compound ID 50, Methyl 4-methyl-3-oxo-2-pentylcyclopentanecarboxylate] |
| 8.3 | CCCCCC1=CCCC1=O [Compound ID 51, 2-pentylcyclopent-2-enone] |
| 8.3 | CC/C=C/CC1=C(CC(=O)OC)CCC1=O [Compound ID 52] |
| 15.1 | CCCCC1CCC(=O)O1 (stereo not drawn) [Compound ID 63, 5-butyldihydrofuran-2(3H)-one] |

same assay, conditions: read-out: CYP2A13 inhibitor activity IC50; substrate coumarin 0.006 mM, 60 min at 37° C.

| Structure (SMILES) | IC50 [µM] |
| --- | --- |
| CCCCCCn1ccnc1 [Compound ID 16, 1-hexyl-1H-imidazole] | 2.1 |
| CC(C)CCn1ccnc1 [Compound ID 39, 1-isopentyl-1H-imidazole] | 5.6 |
| CC(C)=CCn1ccnc1 [Compound ID 40, 1-(3-methylbut-2-enyl)-1H-imidazole] | 5.7 |
| CC/C=C/CCn1ccnc1 [Compound ID 46, (E)-1-(hex-3-enyl)-1H-imidazole] | 6.8 |

biological target: T3, Human CYP2B6 (Homo sapiens, UniProt P20813); test: Inhibition of human CYP2B6, 7-ethoxy-4-trifluoromethyl-coumarin fluorescence assay in microsomes; type: biochemical; conditions: substrate 7-ethoxy-4-trifluoromethyl-coumarin 6 μM, 40 min at 37° C.; read-out: CYP2B6 inhibitor activity IC50
T3 construct: made in house; host or cells: Sf9 insect cells, recombinant baculoviruses (coexpression)
T3 sequence (P20813 1-491): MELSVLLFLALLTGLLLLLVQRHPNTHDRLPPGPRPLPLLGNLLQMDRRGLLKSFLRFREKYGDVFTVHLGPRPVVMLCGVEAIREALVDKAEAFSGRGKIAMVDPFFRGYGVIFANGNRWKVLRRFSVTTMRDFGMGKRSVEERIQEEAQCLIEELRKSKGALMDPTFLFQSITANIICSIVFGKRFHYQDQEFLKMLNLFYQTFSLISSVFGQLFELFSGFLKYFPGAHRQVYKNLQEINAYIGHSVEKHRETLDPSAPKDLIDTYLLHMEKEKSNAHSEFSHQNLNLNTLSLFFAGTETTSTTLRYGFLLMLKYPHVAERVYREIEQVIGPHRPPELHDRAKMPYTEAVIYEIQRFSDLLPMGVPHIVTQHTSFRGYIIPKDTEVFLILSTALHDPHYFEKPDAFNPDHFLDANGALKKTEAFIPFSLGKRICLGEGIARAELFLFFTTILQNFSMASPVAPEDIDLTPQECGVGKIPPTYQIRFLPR
Description: Test compounds that inhibit the activity of CYP2B6 are identified by using the same principle as described in Example 28, first paragraph.
A test compound (details see Table 3) was incubated with CYP2B6 in the presence of a cytochrome P450 reductase. CYP2B6 and P450 reductase are produced using recombinant baculoviruses and co-expressing the two proteins in Sf9 insect cells as described in Example 28. Alternatively, microsomes containing CYP2B6 and the reductase are commercially available (BD Biosciences Gentest, USA). Microsomes were used which contained 1.5 pmoles CYP2B6. Potassium phosphate buffer final concentration was 100 mM, (1M stock, pH 7.4). […] The concentration of the standard substrate 7-ethoxy-4-trifluoromethyl-coumarin was 6 μM. […] The samples were incubated for 40 min at 37° C.

| Structure (SMILES) | IC50 [µM] |
| --- | --- |
| CCCCCCn1ccnc1 [Compound ID 16, 1-hexyl-1H-imidazole] | 0.6 |
